Laboratory results reported in PubChem BioAssay AID1963853 (Molecular Pharmacology Branch, DTP, NCI, 2024).

System: 266295-075-R-J1-PDC spheroid viability
Assay: Anticancer human tumor 266295-075-R-J1-PDC patient-derived head and neck squamous carcinoma cell line growth inhibition [POLQ]
Details: spheroids with HUVEC and MSC; for IC50: curve of first compound; for viability, T/C: stronger effect = lower value; active = viability on the fitted dose curve at most 10% of control; inactive = the rest
Method: Multicellular complex tumor spheroid response to Polymerase (POL) inhibitors (novobiocin, ART-558, RP6685) in combination with a variety of drugs and investigational agents in selected tumor cell lines
The POL inhibitors (novobiocin, ART-558, and RP6685) were evaluated both individually and in combination with standard of care and investigational anticancer small molecules within a complex spheroid model of solid tumors. . Complex spheroids include a stromal component modeled by human endothelial cells (HUVEC) and fibroblasts modeled by human mesenchymal stem cells (MSCs). The concentration ranges selected for each drug and investigational agent were based upon clinically achievable concentrations if the clinical Cmax of the agent was known.
Compounds. The drugs and investigational agents: novobiocin (NSC847541), ART-558 (NSC835418), RP-6685 (NSC848927), peposertib (NSC802822), ceralasertib (NSC780249), elimusertib (NSC800525), camonsertib (NSC841442), AZD-1390 (NSC803789), olaparib (NSC753686), talazoparib (NSC767125), rucaparib (NSC756644), sotorasib (NSC818433), MRTX-1133 (NSC836407), SN-38 (NSC673596), topotecan (NSC609699), epotoside (NSC141540), doxorubicin (NSC123127), gemcitabine (NSC613327), 5-fluorouracil (NSC19893), paclitaxel (NSC125973), vemurafenib (NSC761431), MSA-2 (NSC828583), SN-011 (NSC837082), adavosertib (NSC754352), prexasertib (NSC758257), carboplatin (NSC241240) and oxaliplatin (NSC266046), were obtained from the National Cancer Institute (NCI) Developmental Therapeutics Program Chemical Repository (21). The FDA-approved anticancer drug set is available from the Developmental Therapeutics Program at https://dtp.cancer.gov/organization/dscb/obtaining/. […] The stock solutions were prepared in dimethyl sulfoxide (DMSO, Sigma-Aldrich, St. Louis, MO, cat. D2650), except for the platinum compounds which were prepared in saline (Quality Biological, Gaithersburg, MD, cat. 114-055-101), at 800-fold the tested concentration and stored at -70 degrees C prior to their use. All drugs and investigational agents were tested over a range starting from a high concentration at or near the clinical Cmax and decreasing in half-log increments. If the clinical Cmax for an agent had not been determined, the highest concentration tested was 10 microM, except for SN-38, which was tested at a high concentration of 1 microM.
Cell Culture. All cells were maintained in an incubator at 37 degrees C and 5% CO2 with 95% humidity. The PDC lines were cultured according to standard operating procedures established by the NCI PDMR (https://pdmr.cancer.gov). Table 3 of the manuscript, lists the cell lines along with the number of the three cell types plated to form the mct-spheroids and media for tumor cell growth. After thawing, all PDC lines, except 997537-175-T-J1-PDC and 415267-285-R-J2-PDC, were cultured in Matrigel-coated flasks prepared with a working solution of 1X Ham's F-12 nutrient mix, without supplementation (Thermo Fisher Scientific, cat. 11765054), 100 U/mL penicillin-streptomycin (Thermo Fisher Scientific, cat. 15140122), and 2.5% Matrigel (Corning Inc., Corning, NY, cat. 354248) for the first three passages. The two PDC lines 997537-175-T-J1-PDC and 415267-285-R-J2-PDC were cultured on uncoated flasks. The 857933-349-R-J2-PDC line was cultured in 6C/Colon 1B media containing advanced DMEM/F-12 (Thermo Fisher Scientific, cat. 12634028), 10 mM HEPES (Thermo Fisher Scientific, cat. 15630080), 1X GlutaMAX supplement (Thermo Fisher Scientific, cat. 35050061), 0.1 mg/mL primocin (InvivoGen, San Diego, CA, cat. ant-pm-2), 10% defined fetal bovine serum, heat inactivated (HyClone Laboratories Inc., Logan, UT, cat. SH30070.03HI), 50% L-WRN conditioned media (ATCC, cat. CRL-3276), 1.25 mM N-Acetyl-L-cysteine (Sigma-Aldrich, cat. A9165), 10 mM nicotinamide (Sigma-Aldrich, cat. N0636), 1X B-27 supplement (Thermo Fisher Scientific, cat. 17504044), 1X N-2 supplement (Thermo Fisher Scientific, cat. […]

[1] = second compound 0.0316 µM, first compound 0.0316 µM
[2] = second compound 0.0316 µM, first compound 0.1 µM
[3] = second compound 0.0316 µM, first compound 0.316 µM
[4] = second compound 0.0316 µM, first compound 1 µM
[5] = second compound 0.0316 µM, first compound 3.16 µM
[6] = second compound 0.0316 µM, first compound 10 µM
[7] = second compound 0.1 µM, first compound 0.0316 µM
[8] = second compound 0.1 µM, first compound 0.1 µM
[9] = second compound 0.1 µM, first compound 0.316 µM
[10] = second compound 0.1 µM, first compound 1 µM
[11] = second compound 0.1 µM, first compound 3.16 µM
[12] = second compound 0.1 µM, first compound 10 µM
[13] = second compound 0.316 µM, first compound 0.0316 µM
[14] = second compound 0.316 µM, first compound 0.1 µM
[15] = second compound 0.316 µM, first compound 0.316 µM
[16] = second compound 0.316 µM, first compound 1 µM
[17] = second compound 0.316 µM, first compound 3.16 µM
[18] = second compound 0.316 µM, first compound 10 µM
[19] = second compound 1 µM, first compound 0.0316 µM
[20] = second compound 1 µM, first compound 0.1 µM
[21] = second compound 1 µM, first compound 0.316 µM
[22] = second compound 1 µM, first compound 1 µM
[23] = second compound 1 µM, first compound 3.16 µM
[24] = second compound 1 µM, first compound 10 µM
[25] = second compound 3.16 µM, first compound 0.0316 µM
[26] = second compound 3.16 µM, first compound 0.1 µM
[27] = second compound 3.16 µM, first compound 0.316 µM
[28] = second compound 3.16 µM, first compound 1 µM
[29] = second compound 3.16 µM, first compound 3.16 µM
[30] = second compound 3.16 µM, first compound 10 µM
[31] = second compound 10 µM, first compound 0.0316 µM
[32] = second compound 10 µM, first compound 0.1 µM
[33] = second compound 10 µM, first compound 0.316 µM
[34] = second compound 10 µM, first compound 1 µM
[35] = second compound 10 µM, first compound 3.16 µM
[36] = second compound 10 µM, first compound 10 µM
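Also: spheroids exposed to compounds for seven days before readout.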

CC(C)n1c(=O)n(C)c2cnc3cc(F)c(-c4ccc(OCCCN5CCCCC5)nc4)cc3c21 + Nc1ccc(C#CCN(C(=O)Cc2ncc(C(F)(F)F)cc2C(F)(F)F)c2ccc(F)cc2)nn1
inactive: viability, T/C [1] 105% | viability, T/C [2] 99.3% | viability, T/C [3] 104% | viability, T/C [4] 106% | viability, T/C [5] 82.8% | viability, T/C [6] 76.3% | viability, T/C [7] 93.8% | viability, T/C [8] 103% | viability, T/C [9] 88% | viability, T/C [10] 80.6% | viability, T/C [11] 96% | viability, T/C [12] 64.5% | viability, T/C [13] 110% | viability, T/C [14] 105% | viability, T/C [15] 90.2% | viability, T/C [16] 91.3% | viability, T/C [17] 89.9% | viability, T/C [18] 66.7% | viability, T/C [19] 93.5% | viability, T/C [20] 114% | viability, T/C [21] 99.4% | viability, T/C [22] 90% | viability, T/C [23] 82.2% | viability, T/C [24] 65.3% | viability, T/C [25] 121% | viability, T/C [26] 118% | viability, T/C [27] 103% | viability, T/C [28] 96.3% | viability, T/C [29] 92.4% | viability, T/C [30] 87.9% | viability, T/C [31] 96.5% | viability, T/C [32] 87.9% | viability, T/C [33] 118% | viability, T/C [34] 93.3% | viability, T/C [35] 66.4% | viability, T/C [36] 71.8%
> 10 µM: IC50 (second compound 0.0316 µM) | IC50 (second compound 0.1 µM) | IC50 (second compound 0.316 µM) | IC50 (second compound 1 µM) | IC50 (second compound 3.16 µM) | IC50 (second compound 10 µM)

CCc1cc2c(N3CCc4c(cc(Cn5ccnc5)cc4-c4cn(C)nc4C(F)(F)F)C3=O)ccnc2c(OC)n1 + Nc1ccc(C#CCN(C(=O)Cc2ncc(C(F)(F)F)cc2C(F)(F)F)c2ccc(F)cc2)nn1
inactive: viability, T/C [1] 92.7% | viability, T/C [2] 102% | viability, T/C [3] 105% | viability, T/C [4] 141% | viability, T/C [5] 183% | viability, T/C [6] 159% | viability, T/C [7] 100% | viability, T/C [8] 110% | viability, T/C [9] 91.7% | viability, T/C [10] 135% | viability, T/C [11] 127% | viability, T/C [12] 132% | viability, T/C [13] 116% | viability, T/C [14] 120% | viability, T/C [15] 110% | viability, T/C [16] 138% | viability, T/C [17] 148% | viability, T/C [18] 127% | viability, T/C [19] 109% | viability, T/C [20] 117% | viability, T/C [21] 97.5% | viability, T/C [22] 114% | viability, T/C [23] 134% | viability, T/C [24] 115% | viability, T/C [25] 99.8% | viability, T/C [26] 103% | viability, T/C [27] 122% | viability, T/C [28] 102% | viability, T/C [29] 110% | viability, T/C [30] 130% | viability, T/C [31] 103% | viability, T/C [32] 97.7% | viability, T/C [33] 118% | viability, T/C [34] 115% | viability, T/C [35] 133% | viability, T/C [36] 121%
> 10 µM: IC50 (second compound 0.0316 µM) | IC50 (second compound 0.1 µM) | IC50 (second compound 0.316 µM) | IC50 (second compound 1 µM) | IC50 (second compound 3.16 µM) | IC50 (second compound 10 µM)

COc1cccc(OCCCN)c1-c1cc(Nc2cnc(C#N)cn2)n[nH]1 + Nc1ccc(C#CCN(C(=O)Cc2ncc(C(F)(F)F)cc2C(F)(F)F)c2ccc(F)cc2)nn1
inactive: viability, T/C (second compound 0.0316 µM, first compound 0.00316 µM) 89.6% | viability, T/C (second compound 0.0316 µM, first compound 0.01 µM) 110% | viability, T/C [1] 81.2% | viability, T/C [2] 77.5% | viability, T/C [3] 64.5% | viability, T/C [4] 64.4% | viability, T/C (second compound 0.1 µM, first compound 0.00316 µM) 91.6% | viability, T/C (second compound 0.1 µM, first compound 0.01 µM) 106% | viability, T/C [7] 84.1% | viability, T/C [8] 69.3% | viability, T/C [9] 72% | viability, T/C [10] 73.5% | viability, T/C (second compound 0.316 µM, first compound 0.00316 µM) 106% | viability, T/C (second compound 0.316 µM, first compound 0.01 µM) 91.9% | viability, T/C [13] 73.8% | viability, T/C [14] 76.1% | viability, T/C [15] 60.4% | viability, T/C [16] 71.2% | viability, T/C (second compound 1 µM, first compound 0.00316 µM) 99.2% | viability, T/C (second compound 1 µM, first compound 0.01 µM) 95.9% | viability, T/C [19] 74.5% | viability, T/C [20] 66.5% | viability, T/C [21] 61.9% | viability, T/C [22] 60.8% | viability, T/C (second compound 3.16 µM, first compound 0.00316 µM) 120% | viability, T/C (second compound 3.16 µM, first compound 0.01 µM) 101% | viability, T/C [25] 73.2% | viability, T/C [26] 72.8% | viability, T/C [27] 70.2% | viability, T/C [28] 61% | viability, T/C (second compound 10 µM, first compound 0.00316 µM) 94.6% | viability, T/C (second compound 10 µM, first compound 0.01 µM) 95% | viability, T/C [31] 87.8% | viability, T/C [32] 67.3% | viability, T/C [33] 62.1% | viability, T/C [34] 68.9%
> 1 µM: IC50 (second compound 0.0316 µM) | IC50 (second compound 0.1 µM) | IC50 (second compound 0.316 µM) | IC50 (second compound 1 µM) | IC50 (second compound 3.16 µM) | IC50 (second compound 10 µM)
